For assay [1], the system named is A. tumefaciens ATCC 55632 hydantoinase. The assay can be described thus: Substrate specificity. In kind it is biochemical. Particulars: for Relative Activity (%): substrate 5 mg/ml in 50 mM Tris-HCl pH 9.0, 40°C, 10 minutes, DL-5-Methylhydantoin = 100; for % Relative Activity with: ATCC 55632: Table 6 values rescaled to 5,6-Dihydrouracil = 100. On the procedure: A. Temperature/activity relationship. Hydantoinase activity was measured using a modification of the colorimetric procedure for detecting N-carbamyl amino acids with p-dimethylaminobenzaldehyde (PDMB) as described by Cecere, et al. (FEBS Letters, 57:192 (1975)). Reaction mixtures (total vol. of 0.4 ml in microfuge tubes) contained 75 µmol of DL-5-methylhydantoin (unless designated otherwise) in 50 mM Tris-HCl buffer (pH 9.0) and a suitable amount of hydantoinase extract. Hydantoinase extracts were added to reaction mixtures which had been pre-equilibrated at 40°C, and after 10 minutes incubation at this temperature, reactions were terminated by the addition of 100 µl of 10% (weight/volume) trichloroacetic acid, followed by 100 µl of 10% (weight/volume) PDMB in 6 N HCl. The solutions were mixed, diluted with 0.6 ml of water and centrifuged at 10,000 rpm for 5 minutes. The absorbencies of the supernatant fractions were determined at 440 nm with a Shimadzu Model 160 spectrophotometer. One unit of activity is defined as the amount of enzyme required to form 1 µmol of N-carbamyl amino acid under these conditions. Protein was determined by the BCA assay as per the manufacturer's instructions. (Pierce Chemical Co., Rockford, IL). Specific activity is expressed as units per mg protein. For the determination of the effect of temperature on hydantoinase activity, hydantoinase extracts of A. tumefaciens were added to reaction mixtures pre-equilibrated at various temperatures and activities were determined by the aforementioned assay. Controls (minus enzyme) were run for each temperature and the values obtained were subtracted from the test sample.
Referring to Table 5, the hydantoinase of the present invention differs from previously described hydantoinases in its combination of high temperature and pH optima, pH stability and lack of requirement or stimulation by metal ions. […] E. Substrate specificity. The substrate specificity of the A. tumefaciens ATCC 55632 hydantoinase was determined by adding hydantoinase extract to 0.4 ml of substrate solution (5 mg/ml 50 mM Tris-HCl buffer, pH 9.0) and incubating the reaction mixtures at 40°C in a water bath for 10 minutes in sealed tubes. The reactions were terminated and further processed as described previously. Controls (minus enzyme) were run for each substrate the values obtained were subtracted from the test sample.

Assay [2] deals with hydantoinase. Conditions: Agrobacterium radiobacter hydantoinase; cited from earlier work.
Assay [3] has as its system hydantoinase. Particulars: Agrobacterium IP I671 hydantoinase; cited from earlier work.
Assay [4] has as its system hydantoinase. Conditions: Pseudomonas sp. AJ 11220 hydantoinase; cited from earlier work.
The target of assay [5] is hydantoinase (Pseudomonas putida, UniProt Q59699). Particulars: Pseudomonas fluorescens DSM 84 hydantoinase; cited from earlier work.
Sequence of hydantoinase (Pseudomonas putida, UniProt Q59699) (Q59699 whole entry): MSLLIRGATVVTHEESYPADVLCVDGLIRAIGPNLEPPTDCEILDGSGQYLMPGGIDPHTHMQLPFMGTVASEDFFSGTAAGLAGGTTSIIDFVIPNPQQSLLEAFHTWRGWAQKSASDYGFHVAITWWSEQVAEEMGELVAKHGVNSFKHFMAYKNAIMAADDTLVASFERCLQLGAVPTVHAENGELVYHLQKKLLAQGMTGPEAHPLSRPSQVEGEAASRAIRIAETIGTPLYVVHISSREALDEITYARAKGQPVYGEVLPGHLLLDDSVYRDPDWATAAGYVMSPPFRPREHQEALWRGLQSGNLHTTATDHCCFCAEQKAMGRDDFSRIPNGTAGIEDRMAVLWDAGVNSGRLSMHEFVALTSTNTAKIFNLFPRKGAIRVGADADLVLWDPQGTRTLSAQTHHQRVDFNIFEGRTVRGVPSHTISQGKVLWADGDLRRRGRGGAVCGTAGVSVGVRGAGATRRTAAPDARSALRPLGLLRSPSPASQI
Assay [6] has as its system hydantoinase. Particulars: P. striata hydantoinase; cited from earlier work.
Assay [7] has as its system A. tumefaciens ATCC 55632. Kind of assay: Induction of hydantoinase activity, basal salts medium with yeast extract and glucose. Particulars: addition 2 mg/ml, cells harvested after 8 hours; no addition 0.06. The format is cell-based. As to the method:
In particular it should be noted that the substrate specificity of hydantoinase from A. tumefaciens ATCC 55632 differs substantially from those described for other Agrobacterium species (5 and 6) due to its high relative activity with dihydrouracil and 5-methylhydantoin and its relatively low rate of hydrolysis with 5-benzylhydantoin F. Induction of hydantoinase activity. A. tumefaciens ATCC 55632 was grown in a medium containing basal salts medium, 1% yeast extract and 20 mM glucose. Various hydantoins or carbamyl amino acids were added to a concentration of 2 mg/ml to induce hydantoinase activity. Cells were harvested after 8 hours, hydantoinase extracts were prepared and hydantoinase activity was determined. […]

Assay [8] relates to hydantoinase. Particulars: Arthrobacter crystallopoietes AM2 hydantoinase; cited from earlier work.
The test system of assay [9] is A. tumefaciens ATCC 55632. Kind of assay: Induction of hydantoinase activity, complex medium (separate experiment). The format is cell-based. Particulars: for Specific Activity (Units/mg): inducer 1 gm/liter, complex medium, 24 hours at 30°C, no inducer 0.13. As to the method: 2,4-Thiouracil (2,4-dithiouracil) has been reported to induce hydantoinase activity in Agrobacterium IP I-671 by 40-fold [Meyer, et al., FEMS 109:71(1993)]. In a separate experiment, hydantoinase activities were determined following the growth of A. tumefaciens ATCC 55632 on a complex medium (750 ml) (see media preparation described in Example 1) containing the inducing compounds at 1 gm/liter. The culture media were inoculated with 24 hour seed culture of A. tumefaciens ATCC 55632 and incubated for 24 hours with shaking at 30°C. Hydantoinase extracts were prepared and the effect of 2,4-thiouracil on hydantoinase induction of A. tumefaciens is shown in Table 9.

The subject of another assay is Agrobacterium IP I-671. Particulars: cited from earlier work.
Assay [10] concerns Hydantoinase extract of A. tumefaciens ATCC 55632. Kind of assay: Hydantoinase activation by metals. The format is biochemical. Particulars: 2 mM metal ion, dialyzed extract pre-incubated 30 minutes, assay at 40°C pH 9.0; control without addition 26.4.
Procedure: Reaction mixtures (total vol. of 0.4 ml in microfuge tubes) contained 75 µmol of DL-5-methylhydantoin (unless designated otherwise) in 50 mM Tris-HCl buffer (pH 9.0) and a suitable amount of hydantoinase extract. Hydantoinase extracts were added to reaction mixtures which had been pre-equilibrated at 40°C, and after 10 minutes incubation at this temperature, reactions were terminated by the addition of 100 µl of 10% (weight/volume) trichloroacetic acid, followed by 100 µl of 10% (weight/volume) PDMB in 6 N HCl. The solutions were mixed, diluted with 0.6 ml of water and centrifuged at 10,000 rpm for 5 minutes. The absorbencies of the supernatant fractions were determined at 440 nm with a Shimadzu Model 160 spectrophotometer. One unit of activity is defined as the amount of enzyme required to form 1 µmol of N-carbamyl amino acid under these conditions. Protein was determined by the BCA assay as per the manufacturer's instructions. […] Specific activity is expressed as units per mg protein.
D. Hydantoinase activation by metals. […] Solutions (360 µl) containing either 2 mM Mg^++, Co^++ or Ni^++ in 50 mM Tris buffer, pH 9.0 were pre-incubated with dialyzed hydantoinase extract for 30 minutes at ambient temperature. The reaction mixtures were equilibrated in a 40°C water bath for 2 minutes. The hydantoinase assay was started immediately with the addition of 40 µl DL-5-methylhydantoin (100 mg/ml in 50 mM Tris-HCl buffer, pH 9.0).

Take `CCC(C)C1NC(=O)NC1=O` (racemic) [DL-5-(sec)-Butylhydantoin]: the “Relative Activity (%)” value in assay [1] came to 76%.

As for `O=C1NC(=O)C(Cc2ccccc2)N1` (racemic) [DL-5-Benzylhydantoin], in the assay with hydantoinase [2], the “% Relative Activity with: 5” value is listed as 32%. In addition, the “% Relative Activity with: 6” value with hydantoinase [3] was 100%. Besides, the “% Relative Activity with: 4” value with hydantoinase [4] is listed as 57%. In assay [1], the “% Relative Activity with: ATCC 55632” value stood at 15% and the “Relative Activity (%)” value is on record as 19%. Further, the “% Relative Activity with: 2” value on hydantoinase [5] is 2%.

Consider `O=C1NC(=O)C(CO)N1` (racemic) [DL-5-Hydroxymethylhydantoin], for which, in assay [1], the “Relative Activity (%)” value is given as 22%.

In the case of `CC(C)CC1NC(=O)NC1=O` (racemic) [DL-5-Isobutylhydantoin], the “Relative Activity (%)” value in assay [1] amounted to 77%.

In the case of `CC(C)C1NC(=O)NC1=O` (racemic) [DL-5-Isopropylhydantoin], in [1], the “Relative Activity (%)” value amounted to 73%.

As to `CC1NC(=O)NC1=O` (racemic) [DL-5-Methylhydantoin], the “% Relative Activity with: 3” value in the assay with hydantoinase [6] is reported as 45%. Besides, in the assay on hydantoinase [2], the “% Relative Activity with: 5” value is listed as 24%. In addition, the “% Relative Activity with: 6” value in the assay with hydantoinase [3] was 37%. For the same compound, the “Specific Activity (U/mg)” value in [7] is reported as 1.65 U/mg. Moreover, the “% Relative Activity with: 1” value in the assay on hydantoinase [8] is 100%. Besides, in assay [1], the “% Relative Activity with: ATCC 55632” value was 80% and the “Relative Activity (%)” value was found to be 100%.

Consider `O=C1NC(=O)C(c2ccccc2)N1` (racemic) [DL-5-Phenylhydantoin], for which, in the assay with hydantoinase [6], the “% Relative Activity with: 3” value is reported as 25%. The “% Relative Activity with: 5” value in the assay with hydantoinase [2] is given as 51%. In the assay on hydantoinase [4], the “% Relative Activity with: 4” value was 34%. For the same compound, in the assay with hydantoinase [8], the “% Relative Activity with: 1” value is 37%. In assay [1], the “% Relative Activity with: ATCC 55632” value amounted to 68% and the “Relative Activity (%)” value stood at 85%.

Take `CN1CC(=O)NC1=O` [1-Methylhydantoin]: the “Specific Activity (U/mg)” value in [7] amounted to 0.09 U/mg.

As to `S=c1cc[nH]c(=S)[nH]1` [2,4-Thiouracil], the “induction of hydantoinase activity (in words)” value in [9] (A. tumefaciens ATCC 55632) is “does not appear to induce hydantoinase activity”. In assay [9], the “Specific Activity (Units/mg)” value is listed as 0.15 Units/mg. For the same compound, the “induction of hydantoinase activity” value in the assay with Agrobacterium IP I-671 (Meyer, et al., FEMS 109:71(1993)) was 40 fold.

Take `CSCCC1NC(=O)NC1=O` (centres unmarked) [5(2-methylthioethyl) hydantoin]: the “% Relative Activity with: 3” value in the assay on hydantoinase [6] is on record as 48%. Further, the “% Relative Activity with: 5” value with hydantoinase [2] is listed as 100%. Moreover, in the assay with hydantoinase [3], the “% Relative Activity with: 6” value is on record as 55%. For the same compound, in the assay with hydantoinase [4], the “% Relative Activity with: 4” value is 100%. In assay [1], the “% Relative Activity with: ATCC 55632” value is on record as 65% and the “Relative Activity (%)” value is 81%. Besides, the “% Relative Activity with: 2” value at hydantoinase [5] is 41%.

Turning to `O=C1CCNC(=O)N1` [5,6-Dihydrouracil], the “% Relative Activity with: 3” value in the assay on hydantoinase [6] is recorded as 100%. Besides, the “% Relative Activity with: 6” value with hydantoinase [3] is reported as 10%. Also, the “% Relative Activity with: 4” value with hydantoinase [4] is 9%. Moreover, in assay [7], the “Specific Activity (U/mg)” value is 0.22 U/mg. The “% Relative Activity with: 1” value in the assay on hydantoinase [8] is 78%. In assay [1], the “% Relative Activity with: ATCC 55632” value was 100% and the “Relative Activity (%)” value is on record as 125%. For the same compound, the “% Relative Activity with: 2” value on hydantoinase [5] is on record as 100%.

In the case of `[Co+2]` [Cobalt], the “Hydantoinase Activity (Units/ml)” value in assay [10] amounted to 27.9 Units/ml.

For `NC(=O)NCC(=O)O` [Hydantoic acid], the “Specific Activity (U/mg)” value in assay [7] is 1.34 U/mg.

With `O=C1CNC(=O)N1` [Hydantoin], in assay [9] (A. tumefaciens ATCC 55632, versus no inducer), the “increase of hydantoinase activity” value is given as 10 fold. Further, the “Specific Activity (Units/mg)” value in assay [9] is listed as 1.37 Units/mg. Also, in the assay with Agrobacterium IP I-671 (FEMS 109:71, 1993), the “induction of hydantoinase activity (in words)” value was “does not induce hydantoinase activity”. Moreover, the “Specific Activity (U/mg)” value in assay [7] is reported as 1.44 U/mg.

Turning to `[Mg+2]` [Magnesium], the “Hydantoinase Activity (Units/ml)” value in [10] stood at 24.8 Units/ml.

In the case of `C[C@H](NC(N)=O)C(=O)O` [N-carbamyl alanine], the “Specific Activity (U/mg)” value in assay [7] was 0.44 U/mg.

As for `NC(=O)N[C@@H](Cc1ccccc1)C(=O)O` [N-carbamylphenylalanine], the “Specific Activity (U/mg)” value in [7] is recorded as 0.13 U/mg.

Turning to `[Ni+2]` [Nickel], the “Hydantoinase Activity (Units/ml)” value in assay [10] turned out to be 25.0 Units/ml.

With Tryptophan hydantoin, the “Specific Activity (U/mg)” value in assay [7] was found to be 0.10 U/mg.

The values above are taken from EP0739978A2, “Hydantoinase from agrobacterium tumefaciens and its use for the preparation of optically pure N-carbamyl-D-amino acids from racemic hydantoins” (W.R. Grace & Co.-Conn., priority 1995, dated 1996).
